In brackets after ≈: the same amount, converted by molar mass.
Columns and labels:
Assay type in all cases: cell-based, Mycobacterium tuberculosis
[1] = system: Mtb BioA under-expression strain (BioA-UE); settings: 90% inhibition, biotin-free Sauton's medium, 14 days
[2] = system: Mtb H37Rv without supplemental biotin; settings: 90% inhibition, 14 days
[3] = system: Mtb H37Rv with 1 μM supplemental biotin

C=C(CCC(=O)O)c1nc2ccccc2s1 [Compound 13, 4-(benzothiazol-2-yl)pentenoic acid]
MIC90 BioA-UE [1]: 0.7 µM (≈ 0.163 µg/mL)
MIC90 WT -biotin [2]: 2.5 µM (≈ 0.583 µg/mL)
shift of MIC upon addition of biotin [3]: approximately 3 fold
MIC90 WT+biotin ([3]; 90% inhibition, Mtb H37Rv with 1 μM supplemental biotin, 14 days): 8.7 µM (≈ 2.03 µg/mL)
